We go through one molecule from patent publication US10858356B2, “Pyrazolopyridine derivative having GLP-1 receptor agonist effect” (Chugai Seiyaku Kabushiki Kaisha, priority 2016, dated 2020).

What all share (format): in vivo, cynomolgus monkey
Series [1] can be described thus: Pharmacokinetics after oral administration. To be noted: for Cmax / Tmax / AUC(0-t): male, cynomolgus monkey, plasma, calcium salt hydrate crystal (Sample 162a) suspension, n=2; for AUC(0-t): read-out: AUC0-24 h. How it is done:
The plasma concentrations of the drug were determined by liquid chromatography tandem-mass spectrometry. The lower limit of quantification was 0.3 ng/mL.

Series [2] concerns male cynomolgus monkeys.
The test system of series [3] is male cynomolgus monkeys. As to the kind of experiment: Insulin secretion promoting and blood glucose lowering effects after intravenous glucose. The method, then:
Next, a 50% glucose solution (glucose administration weight to the monkey: 0.5 g/kg) was intravenously administered and a blood sample was collected every 5 min or 10 min to measure the plasma insulin and glucose concentrations. The area under the curve was calculated from the time course of each parameter after the drug administration to evaluate the insulin secretion promoting effect and the blood glucose lowering effect.

The mark [4] stands for this setting: continuous i.v. 40 min, steady-state plasma concentration 0.94 to 4.8 nmol/L, then i.v. glucose 0.5 g/kg, vs vehicle.

Where two headings read alike, the source gives them in different places. Bounds are passed on as bounds.

Regarding `Cc1cc(-n2nc3c(c2-n2ccn(-c4ccc5c(cnn5C)c4F)c2=O)[C@H](C)N(C(=O)c2cc4cc([C@H]5CCOC(C)(C)C5)ccc4n2[C@@]2(c4noc(=O)[nH]4)C[C@@H]2C)CC3)cc(C)c1F` [Example Compound 67, 3-[(1S,2S)-1-[5-[(4S)-2,2-dimethyloxan-4-yl]-2-[(4S)-2-(4-fluoro-3,5-dimethylphenyl)-3-[3-(4-fluoro-1-methylindazol-5-yl)-2-oxoimidazol-1-yl]-4-methyl-6,7-dihydro-4H-pyrazolo[4,3-c]pyridine-5-carbonyl]indol-1-yl]-2-methylcyclopropyl]-4H-1,2,4-oxadiazol-5-one], in series [1] (all dosages (0.05, 0.15, 0.45 and 1.35 mg/kg), oral), the “time after oral administration at which plasma concentrations reached Cmax” value was 2 h. Further, in series [1] (0.05 mg/kg oral), the peak concentration (Cmax) amounted to 4.78 ng/mL, the Tmax was 2 h and the AUC(0-t) turned out to be 23.7 ng·h/mL. Also, in series [1] (0.15 mg/kg oral), the Cmax was found to be 20.7 ng/mL, the Tmax stood at 2 h and the AUC(0-t) came to 135 ng·h/mL. Also, in series [1] (0.45 mg/kg oral), the Cmax worked out at 32 ng/mL, the Tmax was 2 h and the AUC(0-t) came to 208 ng·h/mL. Further, in series [1] (1.35 mg/kg oral), the Cmax was 148 ng/mL, the Tmax amounted to 2 h and the AUC(0-t) was 1040 ng·h/mL. Moreover, the “absorption in the intestinal tract and elimination” value in series [1] (oral 0.05 to 1.35 mg/kg) was “dose-proportionally absorbed in the intestinal tract and eliminated”. The “degree of suppression of food intake compared with control drug” value in series [2] (oral 0.05 or 0.1 mg/kg vs exenatide s.c. 0.3 or 0.6 μg/kg) is “almost equivalent to the control drug exenatide”. The food intake entry in series [2] (oral, 5 consecutive days, 0.05 or 0.1 mg/kg, food intake for 90 min from 3 h after administration) was “suppressed the food intake in a dosage dependent manner”. In addition, in series [3] (setting [4]), the “area under the curve of insulin” value was “increase in the area under the curve of insulin” and the “area under the curve of plasma glucose” value is on record as “decrease in the area under the curve of plasma glucose”. Besides, the “plasma concentration at which insulin secretion promoting and blood glucose lowering effects are equivalent to exenatide” value in series [3] (steady-state plasma concentration, i.v. infusion) is not below 1.6 nmol/L.
